Test results reported in patent US9133235B2, “Macrocyclic antagonists of the motilin receptor for treatment of gastrointestinal dysmotility disorders” (Ocera Therapeutics, Inc., priority 2006, dated 2015).
Like-named read-outs stand apart in the source and are kept apart here.

Key:
[1] = Pharmacokinetic analysis in rat (i.v., s.c., p.o.); type: in vivo; conditions: for half-life: read-out: Elimination (t1/2, min)
Excerpt: I. Pharmacokinetic Analysis of Representative Compounds of the Invention
The pharmacokinetic behavior of compound of the invention can be ascertained by methods well known to those skilled in the art. (Wilkinson, G. R. “Pharmacokinetics: The Dynamics of Drug Absorption, Distribution, and Elimination” in Goodman & Gilman's The Pharmacological Basis of Therapeutics, Tenth Edition, Hardman, J. G.; Limbird, L. E., Eds., McGraw Hill, Columbus, Ohio, 2001, Chapter 1.) The following method was used to investigate the pharmacokinetic parameters (elimination half-life, total plasma clearance, etc.) for intravenous, subcutaneous and oral administration of compounds of the present invention.
Rats: male, Sprague-Dawley (˜250 g)
Rats/Treatment Group: 6 (2 subsets of 3 rats each, alternate bleeds)
Each sample of test compound was sent in solution in a formulation (such as with cyclodextrin) appropriate for dosing. It will be appreciated by one skilled in the art that appropriate modifications to this protocol can be made as required to adequately test the properties of the compound under analysis.
1. Intravenous (i.v.): 2 mg/kg
2. Subcutaneous(s.c): 2 mg/kg
Plasma Collection 1. Same protocol for all dosing groups 2. For each group, 2 subsets (A and B) of 3 rats/subset
At the time intervals indicated above, 0.7 mL of blood were collected from each animal. It is expected that this volume of blood will yield a sample of at least 0.3 mL of plasma. EDTA was used as an anti-coagulant for whole blood collection. Whole blood samples were chilled and immediately processed by centrifugation to obtain plasma.
Plasma samples were stored frozen (−70° C.) until analysis. Analytical detection of parent compound in plasma samples performed by LC-MS after an appropriate preparation protocol: extraction using solid phase extraction (SPE) cartridges (Oasis MCX, Oasis HLB) or liquid-liquid extraction.
Column: Atlantis dC18 from Waters 2.1×30 mm
A: 95% MeOH, 5% water, 0.1% TFA
B: 95% water, 5% MeOH, 0.1% TFA
The analyte was quantitated based upon a standard curve and the method validated with internal standards.

human motilin receptor = human motilin receptor (Homo sapiens, UniProt O43193); assay: Aequorin functional assay (motilin receptor); type: cell-based; parameters: host or cells: CHO-K1 cells co-expressing Gα16 and mitochondrially targeted Aequorin; conditions: functional activity, antagonist testing vs motilin 0.5 nM (EC80)
human motilin receptor, sequence (O43193 whole entry): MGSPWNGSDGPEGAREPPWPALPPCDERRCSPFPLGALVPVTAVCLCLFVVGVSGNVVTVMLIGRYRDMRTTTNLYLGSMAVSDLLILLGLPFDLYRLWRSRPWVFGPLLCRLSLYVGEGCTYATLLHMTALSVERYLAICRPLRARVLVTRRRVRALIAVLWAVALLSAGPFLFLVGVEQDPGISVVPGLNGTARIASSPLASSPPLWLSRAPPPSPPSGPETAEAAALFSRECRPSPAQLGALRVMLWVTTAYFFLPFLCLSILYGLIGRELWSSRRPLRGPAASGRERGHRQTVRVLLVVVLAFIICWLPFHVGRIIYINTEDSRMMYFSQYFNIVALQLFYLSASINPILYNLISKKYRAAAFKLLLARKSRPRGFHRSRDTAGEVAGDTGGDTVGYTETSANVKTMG

CC(C)[C@H]1NC(=O)[C@@H](Cc2cccc(C(F)(F)F)c2)NCCOc2ccccc2CCCNC(=O)[C@H](CN(C)C)NC1=O [Compound 502]
Clearance ([1]; i.v.): 57 mL/min/kg | Elimination (t1/2, min) ([1]; i.v., typical dose 2 mg/kg): 102 min | Clearance ([1]; s.c.): 79 mL/min/kg | Elimination (t1/2, min) ([1]; s.c., typical dose 2 mg/kg): 146 min | IC50 (human motilin receptor): ≤ 10 nM

CCC[C@@H]1NC(=O)[C@@H](C(C)C)NC(=O)[C@@H](Cc2cccc(F)c2)N[C@@H](C)COc2ccccc2CCCNC1=O [Compound 551]
Clearance ([1]; i.v.): 33 mL/min/kg | Elimination (t1/2, min) ([1]; i.v., typical dose 2 mg/kg): 139 min | Elimination (t1/2, min) ([1]; p.o., typical dose 8 mg/kg, without cyclodextrin): 70 to 125 min | Bioavailability (oral) ([1]; p.o., without cyclodextrin): 6%

CCC[C@@H]1NC(=O)[C@@H](C(C)C)NC(=O)[C@@H](Cc2ccc(O)c(Cl)c2)N[C@@H](C)COc2ccccc2CCCNC1=O [Compound 552]
Clearance ([1]; male, Sprague-Dawley, plasma, iv, 1.9 mg/kg, i.v., read-out: Clearance): 45 mL/min/kg | half-life ([1]; male, Sprague-Dawley, plasma, iv, typical dose 2 mg/kg): 24 min | bioavailability ([1]; male, Sprague-Dawley, plasma, po, 8 mg/kg, in the presence of 10% beta-cyclodextrin): 10% | half-life ([1]; male, Sprague-Dawley, plasma, po, typical dose 8 mg/kg, in the presence of 10% beta-cyclodextrin): 307 min | half-life ([1]; male, Sprague-Dawley, plasma, sc, typical dose 2 mg/kg): 103 min | Clearance ([1]; s.c.): 39 mL/min/kg | IC50 (human motilin receptor): ≤ 1 nM
